Laboratory results as given in ChEMBL document CHEMBL1201862, “PubChem BioAssay data set” (2004).
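Method: 48-hour compound exposure of cells in 96-well plates, five concentrations, linear interpolation of endpoints. The concentration for 50% growth inhibition is given as GI50.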 The source made the active and inactive calls. No stated cut-off is given here; in the data, active = GI50 up to about 1.1 µM and inactive = higher.

Tests used:
Experiment in all cases: inhibition of tumour cell growth, NCI panel, 48 h
[1] = tested on: U-251
[2] = tested on: UO-31
[3] = tested on: SF-295
[4] = tested on: EKVX
[5] = tested on: ACHN
[6] = tested on: BT-549
[7] = tested on: MDA-N
[8] = tested on: SK-MEL-28
[9] = tested on: NCI-H460
[10] = tested on: SF-539
[11] = tested on: SNB-19
[12] = tested on: M14
[13] = tested on: SN12C
[14] = tested on: TK-10
[15] = tested on: NCI-H522
[16] = tested on: OVCAR-8
[17] = tested on: UACC-62
[18] = tested on: IGROV-1
[19] = tested on: RXF 393
[20] = tested on: LOX IMVI
[21] = tested on: HOP-62
[22] = tested on: NCI-H23
[23] = tested on: NCI/ADR-RES
[24] = tested on: CAKI-1
[25] = tested on: DU-145
[26] = tested on: HCC 2998
[27] = tested on: MOLT-4
[28] = tested on: MDA-MB-435
[29] = tested on: OVCAR-5
[30] = tested on: SK-MEL-5
[31] = tested on: A498
[32] = tested on: A549
[33] = tested on: COLO 205
[34] = tested on: HCT-116
[35] = tested on: CCRF-CEM
[36] = tested on: Hs-578T
[37] = tested on: K562
[38] = tested on: NCI-H226
[39] = tested on: Malme-3M
[40] = tested on: HOP-92
[41] = tested on: T47D
[42] = tested on: PC-3
[43] = tested on: SF-268
[44] = tested on: RPMI-8226
[45] = tested on: HCT-15
[46] = tested on: SK-MEL-2
[47] = tested on: HT-29
[48] = tested on: SNB-75
[49] = tested on: SK-OV-3
[50] = tested on: UACC-257
[51] = tested on: SR
[52] = tested on: SW-620
[53] = tested on: MCF7
[54] = tested on: OVCAR-3
[55] = tested on: OVCAR-4
[56] = tested on: MDA-MB-231
[57] = tested on: KM12
[58] = tested on: 786-0
[59] = tested on: HL-60

O=[N+]([O-])C(=C/c1cccc2ccccc12)/C(=C\c1cccc2ccccc12)[N+](=O)[O-]
GI50 [1]: 1.95 µM (inactive)
GI50 [2]: 1.85 µM (inactive)
GI50 [3]: 2.58 µM (inactive)
GI50 [4]: 3.4 µM (inactive)
GI50 [5]: 2.13 µM (inactive)
GI50 [6]: 2.05 µM (inactive)
GI50 [7]: 2.62 µM (inactive)
GI50 [8]: 1.83 µM (inactive)
GI50 [9]: 2.34 µM (inactive)
GI50 [10]: 2.21 µM (inactive)
GI50 [11]: 4.51 µM (inactive)
GI50 [12]: 2.19 µM (inactive)
GI50 [13]: 2.34 µM (inactive)
GI50 [14]: 2.17 µM (inactive)
GI50 [15]: 1.37 µM (inactive)
GI50 [16]: 2.42 µM (inactive)
GI50 [17]: 1.71 µM (inactive)
GI50 [18]: 1.79 µM (inactive)
GI50 [19]: 1.99 µM (inactive)
GI50 [20]: 1.61 µM (inactive)
GI50 [21]: 2.74 µM (inactive)
GI50 [22]: 1.98 µM (inactive)
GI50 [23]: 2.51 µM (inactive)
GI50 [24]: 2.2 µM (inactive)
GI50 [25]: 2.84 µM (inactive)
GI50 [26]: 2.42 µM (inactive)
GI50 [27]: 0.984 µM (active)
GI50 [28]: 2.28 µM (inactive)
GI50 [29]: 3.66 µM (inactive)
GI50 [30]: 2.9 µM (inactive)
GI50 [31]: 19.3 µM (inactive)
GI50 [32]: 15.3 µM (inactive)
GI50 [33]: 3.44 µM (inactive)
GI50 [34]: 2.49 µM (inactive)
GI50 [35]: 0.528 µM (active)
GI50 [36]: 3.01 µM (inactive)
GI50 [37]: 3.08 µM (inactive)
GI50 [38]: 4.85 µM (inactive)
GI50 [39]: 2.07 µM (inactive)
GI50 [40]: 1.92 µM (inactive)
GI50 [41]: 3.07 µM (inactive)
GI50 [42]: 5.24 µM (inactive)
GI50 [43]: 2.32 µM (inactive)
GI50 [44]: 2.56 µM (inactive)
GI50 [45]: 1.9 µM
GI50 [46]: 9.73 µM (inactive)
GI50 [47]: 2.21 µM (inactive)
GI50 [48]: 6.95 µM (inactive)
GI50 [49]: 6.08 µM (inactive)
GI50 [50]: 2.32 µM (inactive)
GI50 [51]: 0.955 µM (active)
GI50 [52]: 1.89 µM (inactive)
GI50 [53]: 2.99 µM (inactive)
GI50 [54]: 4.02 µM (inactive)
GI50 [55]: 2.91 µM (inactive)
GI50 [56]: 2.1 µM (inactive)
GI50 [57]: 4.23 µM (inactive)
GI50 [58]: 1.77 µM (inactive)

CSc1c(C#N)c(=O)n(N)c2[nH]nc(C)c12
GI50 [1]: > 100 µM (inactive)
GI50 [2]: > 100 µM (inactive)
GI50 [4]: > 100 µM (inactive)
GI50 [6]: > 100 µM (inactive)
GI50 [7]: > 100 µM (inactive)
GI50 [8]: > 100 µM (inactive)
GI50 [9]: > 100 µM (inactive)
GI50 [10]: > 100 µM (inactive)
GI50 [11]: > 100 µM (inactive)
GI50 [13]: > 100 µM (inactive)
GI50 [14]: > 100 µM (inactive)
GI50 [15]: > 100 µM (inactive)
GI50 [16]: > 100 µM (inactive)
GI50 [59]: > 100 µM (inactive)
GI50 [17]: > 100 µM (inactive)
GI50 [19]: > 100 µM (inactive)
GI50 [20]: > 100 µM (inactive)
GI50 [22]: > 100 µM (inactive)
GI50 [23]: > 100 µM (inactive)
GI50 [24]: 45.2 µM (inactive)
GI50 [25]: > 100 µM (inactive)
GI50 [26]: > 100 µM (inactive)
GI50 [27]: > 100 µM (inactive)
GI50 [28]: > 100 µM (inactive)
GI50 [30]: > 100 µM (inactive)
GI50 [31]: 91.6 µM (inactive)
GI50 [32]: > 100 µM (inactive)
GI50 [33]: > 100 µM (inactive)
GI50 [34]: > 100 µM (inactive)
GI50 [35]: > 100 µM (inactive)
GI50 [36]: > 100 µM (inactive)
GI50 [37]: > 100 µM (inactive)
GI50 [38]: > 100 µM (inactive)
GI50 [39]: > 100 µM (inactive)
GI50 [41]: > 100 µM (inactive)
GI50 [42]: > 100 µM (inactive)
GI50 [43]: > 100 µM (inactive)
GI50 [44]: > 100 µM (inactive)
GI50 [45]: > 100 µM
GI50 [46]: > 100 µM (inactive)
GI50 [47]: > 100 µM (inactive)
GI50 [48]: > 100 µM (inactive)
GI50 [49]: > 100 µM (inactive)
GI50 [50]: > 100 µM (inactive)
GI50 [51]: > 100 µM (inactive)
GI50 [52]: > 100 µM (inactive)
GI50 [53]: > 100 µM (inactive)
GI50 [55]: > 100 µM (inactive)
GI50 [56]: > 100 µM (inactive)
GI50 [57]: > 100 µM (inactive)
GI50 [58]: > 100 µM (inactive)
